We go through eight compounds from patent US12448394B2, “Heterocyclic pyrazole derivatives as type III receptor tyrosine kinase inhibitors” (DEVELOPMENT CENTER FOR BIOTECHNOLOGY, priority 2019, dated 2025).

SMILES strings stand for the structures.

One experiment concerns the target T1, PDGFRα kinase (Homo sapiens, UniProt P16234).
T1 construct: purchased SignalChem
The experiment can be described thus: PDGFRα kinase assay (AlphaScreen). It is filed as biochemical. The conditions noted are these: read-out: Ranking of IC50 values, PDGFRα. A digest of the protocol:
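IC50 values came from duplicate serial dilutions, with product read by AlphaScreen. The reaction ran 30 min at 30 °C, then EDTA stop: 1.5 ng recombinant enzyme, biotin-poly(Glu4:Tyr1) substrate, 10 μM ATP, 10 mM MOPS pH 7.0, 10 mM MgCl2.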

A further experiment addresses T2, MET kinase (Homo sapiens, UniProt P08581).
T2 construct: purchased SignalChem
The experiment can be described thus: MET kinase assay (AlphaScreen, counter screen). It is filed as biochemical. The conditions noted are these: read-out: Ranking of IC50 values, MET. A digest of the protocol: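 IC50 came from duplicate serial dilutions, with AlphaScreen detection of phosphorylated biotin-poly(Glu4:Tyr1). The reaction used 1 ng recombinant MET, 10 µM ATP […], and MOPS pH 7.0/MgCl2 buffer, ran 45 min at 30 °C, and was quenched with EDTA.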
(Alpha assays give light when donor and acceptor beads are brought close together.)

For experiment [1], the system named is MV4-11 human acute myeloid leukemia cell with FLT3-ITD mutation. The experiment can be described thus: MV4-11 cell proliferation assay (CellTiter 96). It is filed as cell-based. The note with it: Homo sapiens, MV4-11, 72 h, MV4-11 cells, 72 hours treatment, CellTiter96; read-out: anti-proliferation activity MV4-11 (FLT3-ITD), IC50 ranking. A digest of the protocol: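 Cells seeded at 6500/well in IMDM with 10% heat-inactivated FBS, left overnight at 37 °C, 5% CO2, then exposed to increasing compound concentrations for 72 h. Viability read as absorbance at 490 nm after 2–4 h with CellTiter96 AQueous One reagent.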

Experiment [2] has as its system Molm-14 human acute myeloid leukemia cell with FLT3-ITD mutation. The experiment can be described thus: Molm-14 cell proliferation assay (CellTiter 96). It is filed as cell-based. The conditions noted are these: Homo sapiens; Molm-14 cells, 72 hours treatment, CellTiter96; read-out: anti-proliferation activity Molm-14 (FLT3-ITD), IC50 ranking. Summed up: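 Molm-14 (FLT3-ITD AML) cells in RPMI 1640 with 10% heat-inactivated FBS were seeded at 25000 cells/well, incubated overnight at 37° C, 5% CO2, then treated with increasing compound concentrations for 72 hours. Viability was read as absorbance at 490 nm after 2˜4 hours with CellTiter96 AQueous One reagent.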

In experiment [3] the test system is A375 melanoma cell with BRAF V600E mutation. The experiment can be described thus: A375 cell proliferation assay (counter screen). It is filed as cell-based, human. The note with it: Homo sapiens, A-375, A375 cells, 72 hours treatment, CellTiter96, read-out: anti-proliferation activity A375 BRAF V600E, IC50 ranking. A digest of the protocol:
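A375 cells (BRAF V600E) seeded at 2000 cells/well in DMEM with 10% FBS, settled overnight at 37° C, 5% CO2, then exposed to increasing compound concentrations for 72 hours. Viability read by MTS-type CellTiter96 AQueous reagent, absorbance at 490 nm after 2–4 hours.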

The test system of experiment [4] is HCC827 NSCLC cell with EGFR exon 19 deletion mutation. The experiment can be described thus: HCC827 cell proliferation assay (counter screen). It is filed as cell-based, human. The conditions noted are these: Homo sapiens, HCC827 cells, 72 hours treatment, CellTiter96, read-out: anti-proliferation activity HCC827 EGFR Exon19 del, IC50 ranking. Summed up:
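HCC827 cells (EGFR exon 19 deletion) were seeded at 8000 cells/well in RPMI1640 with 10% FBS, then exposed to increasing compound concentrations for 72 h at 37 °C. Viability was read by CellTiter96 AQueous One (MTS), absorbance 490 nm after 2–4 h.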

T1 sequence (P16234 24-1089): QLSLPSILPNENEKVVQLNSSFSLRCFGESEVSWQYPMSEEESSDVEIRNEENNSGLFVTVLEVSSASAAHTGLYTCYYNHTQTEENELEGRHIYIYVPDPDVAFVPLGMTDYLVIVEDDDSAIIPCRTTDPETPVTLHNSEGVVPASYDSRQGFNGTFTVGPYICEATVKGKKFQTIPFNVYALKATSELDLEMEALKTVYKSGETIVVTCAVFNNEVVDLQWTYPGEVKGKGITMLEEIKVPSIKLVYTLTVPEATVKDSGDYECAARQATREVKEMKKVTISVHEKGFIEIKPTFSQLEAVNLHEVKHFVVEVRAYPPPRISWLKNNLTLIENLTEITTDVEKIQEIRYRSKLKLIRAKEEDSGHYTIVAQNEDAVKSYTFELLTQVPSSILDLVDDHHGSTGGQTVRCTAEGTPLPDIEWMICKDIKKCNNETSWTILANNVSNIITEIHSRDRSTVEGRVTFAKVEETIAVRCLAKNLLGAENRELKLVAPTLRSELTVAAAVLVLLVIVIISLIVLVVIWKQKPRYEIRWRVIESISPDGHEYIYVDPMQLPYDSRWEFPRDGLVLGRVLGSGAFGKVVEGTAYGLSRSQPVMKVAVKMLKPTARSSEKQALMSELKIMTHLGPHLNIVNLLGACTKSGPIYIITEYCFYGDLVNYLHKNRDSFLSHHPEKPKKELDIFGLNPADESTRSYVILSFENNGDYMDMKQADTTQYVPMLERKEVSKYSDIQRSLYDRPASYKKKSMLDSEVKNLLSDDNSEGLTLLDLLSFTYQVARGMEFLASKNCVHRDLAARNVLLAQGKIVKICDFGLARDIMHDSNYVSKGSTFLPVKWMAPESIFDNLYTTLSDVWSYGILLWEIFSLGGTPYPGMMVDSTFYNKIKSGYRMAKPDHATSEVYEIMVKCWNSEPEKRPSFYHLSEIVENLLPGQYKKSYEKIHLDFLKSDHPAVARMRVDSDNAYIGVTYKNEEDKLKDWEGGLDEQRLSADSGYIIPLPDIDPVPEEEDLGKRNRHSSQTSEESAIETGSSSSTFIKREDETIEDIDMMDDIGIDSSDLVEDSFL
T2 sequence (P08581 25-1390): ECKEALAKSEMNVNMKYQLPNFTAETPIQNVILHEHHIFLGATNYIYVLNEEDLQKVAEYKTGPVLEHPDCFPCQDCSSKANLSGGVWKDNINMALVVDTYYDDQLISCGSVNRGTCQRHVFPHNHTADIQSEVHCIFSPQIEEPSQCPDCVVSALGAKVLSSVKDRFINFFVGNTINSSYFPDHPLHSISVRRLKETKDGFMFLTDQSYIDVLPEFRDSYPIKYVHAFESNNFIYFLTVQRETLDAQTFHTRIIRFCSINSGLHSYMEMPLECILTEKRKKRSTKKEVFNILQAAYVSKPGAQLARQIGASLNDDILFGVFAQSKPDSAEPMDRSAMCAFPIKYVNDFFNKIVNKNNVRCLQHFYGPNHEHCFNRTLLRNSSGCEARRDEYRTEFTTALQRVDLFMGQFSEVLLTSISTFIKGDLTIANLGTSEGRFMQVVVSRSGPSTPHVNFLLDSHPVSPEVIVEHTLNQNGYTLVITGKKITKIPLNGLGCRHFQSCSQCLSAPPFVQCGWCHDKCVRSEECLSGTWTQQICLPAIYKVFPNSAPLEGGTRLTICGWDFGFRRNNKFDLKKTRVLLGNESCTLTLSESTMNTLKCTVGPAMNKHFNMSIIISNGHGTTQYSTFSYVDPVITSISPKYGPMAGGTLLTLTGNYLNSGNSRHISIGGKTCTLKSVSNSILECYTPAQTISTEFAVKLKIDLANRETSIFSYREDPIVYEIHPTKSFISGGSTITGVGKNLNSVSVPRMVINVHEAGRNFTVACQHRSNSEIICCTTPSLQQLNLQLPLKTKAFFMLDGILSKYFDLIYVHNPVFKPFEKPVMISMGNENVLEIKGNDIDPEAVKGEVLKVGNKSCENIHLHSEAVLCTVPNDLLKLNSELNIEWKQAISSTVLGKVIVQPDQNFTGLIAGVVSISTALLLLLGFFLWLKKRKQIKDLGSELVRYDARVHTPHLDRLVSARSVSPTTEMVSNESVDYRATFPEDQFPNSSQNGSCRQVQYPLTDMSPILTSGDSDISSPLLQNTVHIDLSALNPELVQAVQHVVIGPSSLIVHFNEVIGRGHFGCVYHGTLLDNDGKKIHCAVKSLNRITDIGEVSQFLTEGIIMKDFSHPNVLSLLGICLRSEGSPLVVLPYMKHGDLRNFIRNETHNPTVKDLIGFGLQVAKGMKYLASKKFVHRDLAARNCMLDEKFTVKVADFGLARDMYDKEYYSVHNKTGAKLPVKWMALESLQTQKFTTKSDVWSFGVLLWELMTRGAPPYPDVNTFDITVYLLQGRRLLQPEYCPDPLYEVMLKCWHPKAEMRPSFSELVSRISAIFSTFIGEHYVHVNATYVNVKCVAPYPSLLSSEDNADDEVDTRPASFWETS

Take `Nc1ccc(-c2cc3c(s2)Cc2c(-c4ccc5[nH]ncc5c4)n[nH]c2-3)cn1` [Compound 40, 5-(3-(1H-indazol-5-yl)-1,4-dihydrothieno [2′,3′:4,5]cyclopenta [1,2-c]pyrazol-6-yl) pyridin-2-amine]: the IC50 is 0.001 to 0.01 µM on PDGFRα kinase; more than 1 µM at MET kinase; less than 0.03 µM in experiment [1]; less than 0.03 µM in experiment [2]; 1 to 10 µM in experiment [3]; 1 to 10 µM in experiment [4].

On to `Cn1ncc2ccc(-c3n[nH]c4c3Cc3sc(-c5ccc(CN6CCOCC6)c(F)c5F)cc3-4)cc21` [Compound 88, 4-(2,3-difluoro-4-(3-(1-methyl-1H-indazol-6-yl)-1,4-dihydrothieno [2′,3′:4,5]cyclopenta [1,2-c]pyrazol-6-yl)benzyl)morpholine], for which the IC50 at PDGFRα kinase is 0.03 to 0.1 µM; at MET kinase it was more than 1 µM; in experiment [1], 0.3 to 1 µM; in experiment [2], 0.3 to 1 µM; in experiment [3] it was more than 10 µM; in experiment [4] it was more than 10 µM.

Consider `CN1CCN(Cc2ccc(-c3cc4c(s3)Cc3c(-c5ccc6cnn(C)c6c5)n[nH]c3-4)cc2)CC1` [Compound 84, 3-(1-methyl-1H-indazol-6-yl)-6-(4-((4-methylpiperazin-1-yl)methyl)phenyl)-1,4-dihydrothieno [2′,3′:4,5]cyclopenta [1,2-c]pyrazole], for which the IC50 was 0.001 to 0.01 µM at PDGFRα kinase; more than 1 µM on MET kinase; less than 0.03 µM in experiment [1]; less than 0.03 µM in experiment [2]; more than 10 µM in experiment [3]; more than 10 µM in experiment [4].

`Cn1nnc2ccc(-c3n[nH]c4c3Cc3sc(-c5ccc(CN6CCOCC6)cc5)cc3-4)cc21` [Compound 89, 4-(4-(3-(1-methyl-1H-benzo[d][1,2,3]triazol-6-yl)-1,4-dihydrothieno [2′,3′:4,5]cyclopenta [1,2-c]pyrazol-6-yl)benzyl)morpholine]: the IC50 at PDGFRα kinase was 0.001 to 0.01 µM; on MET kinase, more than 1 µM; in experiment [1], 0.03 to 0.1 µM; in experiment [2], 0.03 to 0.1 µM; in experiment [3], more than 10 µM; in experiment [4], more than 10 µM.

In the case of `Nc1ccc(-c2cc3c(s2)Cc2c(-c4ccc5cn[nH]c5c4)n[nH]c2-3)cn1` [Compound 3, 5-(3-(1H-indazol-6-yl)-1,4-dihydrothieno[2′,3′:4,5]cyclopenta[1,2-c]pyrazol-6-yl)pyridin-2-amine], the IC50 is 0.001 to 0.01 µM at PDGFRα kinase; more than 1 µM at MET kinase; less than 0.03 µM in experiment [1]; less than 0.03 µM in experiment [2]; more than 10 µM in experiment [3]; more than 10 µM in experiment [4].

`COc1ccc(-c2cc3c(s2)Cc2c(-c4ccc5[nH]ncc5c4)n[nH]c2-3)cn1` [Compound 1, 3-(1H-indazol-5-yl)-6-(6-methoxypyridin-3-yl)-1,4-dihydrothieno[2′,3′:4,5] cyclopenta[1,2-c]pyrazole]: the IC50 at PDGFRα kinase was 0.01 to 0.03 µM; at MET kinase, more than 1 µM; in experiment [1] it was 0.03 to 0.1 µM; in experiment [2] it was 0.03 to 0.1 µM; in experiment [3], more than 10 µM; in experiment [4], more than 10 µM.

Take `Cn1ncc2ccc(-c3n[nH]c4c3Cc3sc(-c5ccc(N6CCOCC6)nc5)cc3-4)cc21` [Compound 82, 4-(5-(3-(1-methyl-1H-indazol-6-yl)-1,4-dihydro-thieno[2′,3′:4,5]cyclopenta [1,2-c]pyrazol-6-yl)pyridin-2-yl)morpholine]: the IC50 on PDGFRα kinase was 0.1 to 0.3 µM; at MET kinase it was more than 1 µM; in experiment [1] it was 0.1 to 0.3 µM; in experiment [2], 0.3 to 1 µM; in experiment [3], 1 to 10 µM; in experiment [4], more than 10 µM.

`COc1ccc(-c2cc3c(s2)Cc2c(-c4ccc5cnn(C)c5c4)n[nH]c2-3)cn1` [Compound 4, 6-(6-methoxypyridin-3-yl)-3-(1-methyl-1H-indazol-6-yl)-1,4-dihydrothieno [2′,3′:4,5]cyclopenta[1,2-c] pyrazole]: the IC50 was 0.01 to 0.03 µM at PDGFRα kinase; more than 1 µM at MET kinase; 0.1 to 0.3 µM in experiment [1]; 0.1 to 0.3 µM in experiment [2]; more than 10 µM in experiment [3]; more than 10 µM in experiment [4].
